Results: patent US20240052012A1, “PLATELET ALPHA-GRANULES FOR DELIVERY OF MULTIPLE PROTEINS” (CSTS Health Care Inc., priority 2021, published 2024)
Ends that are not written are not given here.

Legend:
[1] = tested on: platelet α-granule; test: Confocal microscopy, loading of Alexa647-PAL1 conjugated Lucitanib; type: cell-based; settings: one hour at 37° C.; FIG. 26A
Method: Platelets were co-incubated with Alexa647-labled Lucitanib or with Alexa647-PAL1 conjugated Lucitanib for one hour at 37° C. The platelets were then spun for 10-minutes at 800 g, fixed in 2% paraformaldehyde, and settled onto glass coverslips. After permeabilization, immunofluorescence staining was performed against PF4 in platelets and further stained with Alexa568-secondary antibody. The images were collected through a Nikon-Al laser-scanning microscope equipped with a 60× oil objective. FIG. 26A includes representative images in which immunofluorescence for PF4 was shown in red and Alexa647 was shown in blue. […] FIG. 26B is a graph showing the averaged intensities of Alexa647 channel for >800 ROIs in each group were analyzed using ImageJ and the error bar is the standard deviation of the mean.

[2] = tested on: alpha granules of platelets; test: Confocal microscopy, colocalization of Alexa647-labeled peptides with PF4; type: cell-based; settings: for loading into alpha granules of platelets (Alexa647 intensities per ROI): ROIs selected on PF4 intensity, FIG. 2B
Method: To confirm that the Alexa647-labeled GAG-binding peptides were loaded into alpha granules of platelets, confocal microscopy was used. The platelets that were centrifuged in the experiments of FIG. 1A and FIG. 1B, were fixed in 2% paraformaldehyde and settled onto glass coverslips. After permeabilization, immunofluorescence staining was performed against PF4, which is a marker for alpha granules of platelets. Platelets were stained with Alexa568-secondary antibody. Images were collected through a Nikon-A1 laser-scanning microscope equipped with a 60× oil objective lens.
FIG. 2A are representative images with PF4 staining shown in red (left column) and the Alexa647 signal (from the free Alexa647, Alexa647-labeled GAG-binding peptide, or Alexa647-labeled CFL; middle column) shown in purple. Images were only adjusted for brightness and contrast for display. n>5 images were acquired for each experiment and regions of interest (ROIs) were selected based on PF4 intensity.
The Alexa647 intensities for each ROI were measured using ImageJ and plotted in box and whisker graph using Prism 8.

[3] = tested on: isolated platelets; test: Platelet loading of Alexa647-labeled peptides, decrease in fluorescence in supernatant; type: cell-based; settings: for fluorescence of supernatant, complete versus loaded measurements (platelet loading): Alexa647-labeled peptides co-incubated with isolated platelets at 37° C. for one hour, FIG. 1A; for loading of attached cargo into platelets, loaded condition normalized to its complete condition: FIG. 1B
Method: Alexa647-labeled peptides or Alexa647 alone were co-incubated with isolated platelets at 37° C. for one hour to allow for platelet loading. The respective platelet-loading ability was indicated by a decrease in fluorescence in supernatant following the incubation. For controls, identical experiments were performed without the incubation period (noted as “complete” in the figure). Platelets following co-incubation were then centrifuged at 800 g for 10-minutes to separate platelets from supernatant (noted as “loaded” in the figure).
FIG. 1B represents the data in FIG. 1A normalized for each peptide experiment, i.e., normalization of a loaded condition to its complete condition.

[4] = tested on: murine hemangioendothelioma cells (EOMA); test: Sequestration of bFGF by GAGs on EOMA cells; type: cell-based; settings: monolayer culture, standard or tumor conditioned media; FIG. 20
Source text: FIG. 20 is a graph showing sequestration of growth factors by glycosaminoglycans (GAGs) on the surface of murine hemangioendothelioma cells (EOMA). Here, the cells growing in monolayer tissue culture conditions either under standard media conditions or in surrogate tumor environment using tumor conditioned media, sequester bFGF onto the GAGS on platelets and endothelial cells, and thus remove it from the supernatant. […] Values represent means and SE of 5 wells.

[5] = tested on: EOMA cells and platelets; test: Immunofluorescence, aggregation of platelet PF4 on EOMA cells; type: cell-based, murine; settings: FIG. 22
Method: Platelet factor 4 (PF4) has one of the highest affinities for HS occurring in nature and can occupy GAG sites and displace other HS binding growth factors. As such, PF4 acts as an inhibitor of tumor growth. FIG. 22 are immunofluorescent images showing that platelets form a provisional matrix that can exchange proteins with endothelial cells upon tumor activation. Murine hemangioendothelioma cells (EOMA) cells were grown in standard media (DMEM+10% FBS), and normal platelets were added. Under normal conditions (top row), PF4 (the main content of platelets α-granules; green and left column) is seen at the periphery (i.e., along the membrane) of the EOMA cells as the platelets aggregate along the cell membrane. Heparan sulphate (red, second from left column) is distributed throughout the membranous surface of the endothelial cell, and DAPI (blue, second from right column) is the nuclear counterstain. In absence of tumor conditioned media, thrombin or other activators of endothelial cell, there is no clumping and aggregation of the platelets. […] However, upon incubation of EOMA cells and platelets in presence of tumor conditioned media (second row), the expression of HS is increased, and a thick platelet provisional matrix is formed as shown by the aggregation of PF4 on the HS rich surface EOMA cell; this platelet provisional matrix is used by EOMA cells for growth. […]

[6] = Affinity chromatography of peptides, Hi-Trap Heparin column on FPLC; type: binding; settings: PAL1 versus PAL2; FIG. 4C
Method: (§1) Additionally, the binding affinities for the two illustrative GAG-binding peptides, PAL1 and PAL2, to Heparan Sulfate (HS) and Chondroitin Sulfate (CSA) was determined using affinity chromatography. […] The dissociation constants were measured using ITC, the higher it is, the looser the binding is. […] The binding was measured by the elution volume on a Hi-Trap Heparin column attached to a FPLC system. The later the peak occurs, the tighter the binding is. In FIG. 4A, the peptide amino acid sequences including the control peptide (CFL) and the two PALs (PAL1 and PAL2) are shown.

[7] = tested on: alpha-granule subsets of platelets; test: Confocal microscopy, subcellular localization of Alexa647-labelled PAL1 and PAL2 against VEGF and PF4; type: cell-based; settings: Alexa647-labelled peptides, FIG. 24; for loading into alpha-granule subsets: VEGF and PF4 markers; for preferred colocalization with alpha-granule subset marker: VEGF/PAL and PF4/PAL merged
Method: FIG. 24 are immunofluorescent images showing that PAL1 and PAL2 have different subcellular localizations, i.e., have a preference for distinct alpha-granules. Using VEGF as the marker of one alpha-granule set (green) and PF4 as the marker of the second alpha-granule set (red), the subcellular localization of Alexa647-labelled PAL1 and PAL2 (blue) were recorded on Nikon-Al confocal microscope.
The images FIG. 24 were acquired using Nikon-A1 confocal microscope equipped with a 60× oil immersed objective. PAL1 and PAL2 partially colocalize with both subsets of the alpha-granules as indicated by the cyan and purple pixels in the merged images. To quantify the difference between PAL1 and PAL2, the fractionation of loaded platelets were performed

[8] = Isothermal titration calorimetry (ITC) of GAG-binding peptides; settings: for affinity for chondroitin sulfate A (dissociation constants by ITC): 22° C., 5 mM Tris-HCl pH 7.35, 1% DMSO, FIG. 3E, 3F
Method: FIG. 3A is a schematic depicting the isothermal titration calorimetry (ITC) experiments performed in this example. Here, chondroitin sulfate A (CSA) was used to test affinities of illustrative GAG-binding peptides for glycosaminoglycan. 3 mM CSA was loaded into a syringe and CSA was titrated into the sample cell withholding a 0.25 mM solution of GAG-binding peptide or a charge-free ligand (CFL), which served as a negative control. Temperature was set at 22° C., the buffer was 5 mM Tris-HCl (pH 7.35), and 1% DMSO.
FIG. 3B to FIG. 3D show graphical representations of ITC dissociation kinetics for CSA titrated into cells withholding PAL1 (FIG. 3B), PAL2 (FIG. 3C), and CFL (FIG. 3D).
The data obtained during the experiments of FIG. 3B and FIG. 3C were used to determine dissociation constants for the CSA and GAG-binding peptide interactions; these were determined through titration curve fitting using sequential binding model.
as §1

[9] = tested on: platelets (platelet rich plasma); test: FACS analysis of growth factor uptake by platelets; type: cell-based; settings: pretreatment of platelet rich plasma; FGF, PF4, VEGF, TPO; all but thrombopoietin; FIG. 15B
Source text: (Inh=inhibitor added, PF4 receptor, a splice variant of the chemokine receptor CXCR3, known as CXCR3B).

## Alexa647-labelled PAL1 conjugated-Lucitanib: Lucitanib conjugated with Alexa647-labelled PAL1 (SEQ ID NO: 1) (ERRIWFPYRRF; also: Alexa647 label, conjugated to Lucitanib, sites not given here)
[1]
  colocalization with PF4 / loading into α-granules: colocalization

## EGGIWFPYGGF [CFL, reference compound]
[2]
  loading into alpha granules of platelets (Alexa647 intensities per ROI): do not load into platelets
[2]; merged images, FIG. 2A
  colocalization of alpha granule marker PF4 and Alexa647 signal: Co-localization was not observed
[3]
  fluorescence of supernatant, complete versus loaded measurements (platelet loading): did not change
  loading of attached cargo into platelets, loaded condition normalized to its complete condition: unable to direct loading of the cargo into platelets

## Heparin
[4]
  sequestration of bFGF from the supernatant onto GAGs: further enhance the phenomenon
[5]
  aggregation of platelet PF4 on the HS rich surface of EOMA cells: inhibited

## RFRWPYRIREF [PAL2]
[2]
  loading into alpha granules of platelets (Alexa647 intensities per ROI): facilitates loading of an attached cargo into alpha granules of platelets
[6]
  relative binding to HS (elution volume on Hi-Trap Heparin column): binds HS tighter than PAL1
[3]
  fluorescence of supernatant, complete versus loaded measurements (platelet loading): decrease in absorbance
  loading of attached cargo into platelets, loaded condition normalized to its complete condition: facilitates loading of an attached cargo into platelets
[7]
  loading into alpha-granule subsets: loaded to both the subsets of alpha-granules
  preferred colocalization with alpha-granule subset marker: colocalized more to the PF4 channel
[8]
  affinity for chondroitin sulfate A (dissociation constants by ITC): high affinity

## Cc1cc(N)c2cc(NC(=O)Nc3ccc4nc(C)cc(N)c4c3)ccc2n1 [surfen]
[9]
  growth factor uptake by platelets: significantly inhibits growth factor uptake by platelets

## thrombin
[4]
  sequestration of bFGF from the supernatant onto GAGs: released from the GAGs into the supernatant
[5]
  aggregation of platelet PF4 on the HS rich surface of EOMA cells: reproduced

## ERRIWFPYRRF [PAL1]
[2]
  loading into alpha granules of platelets (Alexa647 intensities per ROI): facilitates loading of an attached cargo into alpha granules of platelets
[3]
  fluorescence of supernatant, complete versus loaded measurements (platelet loading): decrease in absorbance
  loading of attached cargo into platelets, loaded condition normalized to its complete condition: facilitates loading of an attached cargo into platelets
[7]
  loading into alpha-granule subsets: loaded to both the subsets of alpha-granules
  preferred colocalization with alpha-granule subset marker: colocalized more to the VEGF subset
[8]
  affinity for chondroitin sulfate A (dissociation constants by ITC): high affinity
[8]; PAL1 versus PAL2, FIG. 4B
  relative binding to CSA (dissociation constants by ITC): bind CSA tighter than PAL2
